Test systems include Escherichia coli; Candida albicans; Staphylococcus aureus; Klebsiella pneumoniae; Escherichia coli UB1005; Acinetobacter baumannii.
Holding throughout (test): ≥ marks a high value that may be exact or a test limit, other limits are often not marked, values filed in µg/mL are converted to µM
Assay [1] deals with Escherichia coli ATCC 25922.
Assay [2] has as its system Staphylococcus aureus ATCC 25923.
The test system of assay [3] is Bacillus subtilis ATCC 6633.
Assay [4] concerns Pseudomonas aeruginosa ATCC 27853.
In assay [5] the test system is Klebsiella pneumoniae ATCC 700603.
Assay [6] relates to Candida albicans ATCC 10231.
Assay [7] deals with Staphylococcus aureus ATCC 29213.
Assay [8] concerns Pseudomonas aeruginosa PAO1.
Assay [9] has as its system Pseudomonas aeruginosa ATCC 9027.

The structures appear in SMILES notation. Values after ≈ are worked out from the molar mass of the structure shown.

Consider `CC[C@H](C)[C@H](NC(=O)[C@H](CCCCN)NC(=O)[C@@H](N)CS)C(=O)N[C@@H](CC(N)=O)C(=O)N[C@@H](CCCCN)C(=O)N[C@@H](CCC(N)=O)C(=O)N[C@@H](CS)C(=O)O` [CKINKQC], for which the MIC with Escherichia coli, with Candida albicans and against Staphylococcus aureus was > 200 µM throughout.
Consider `CC[C@H](C)[C@H](NC(=O)CNC(=O)[C@H](CC(N)=O)NC(=O)[C@@H](NC(=O)[C@H](C)NC(=O)[C@H](CC(N)=O)NC(=O)[C@H](CC(C)C)NC(=O)[C@H](C)NC(=O)[C@H](C)NC(=O)[C@H](CCCN=C(N)N)NC(=O)CNC(=O)[C@H](C)NC(=O)[C@H](C)NC(=O)[C@H](C)NC(=O)[C@H](C)NC(=O)[C@H](CCSC)NC(=O)[C@H](CC(=O)O)NC(=O)[C@H](CCCCN)NC(=O)[C@@H](NC(=O)[C@H](CO)NC(=O)[C@H](CO)NC(=O)[C@H](Cc1c[nH]c2ccccc12)NC(=O)[C@H](CC(C)C)NC(=O)[C@@H](N)CO)[C@@H](C)CC)C(C)C)C(=O)N[C@@H](CC(C)C)C(=O)N[C@@H](CC(N)=O)C(=O)N1CCC[C@H]1C(N)=O` [SLWSSIKDMAAAAGRAALNAVNGILNP], for which the MIC – broadly, the smallest concentration in the dilution series that meets the test's criterion for growth inhibition – in [1] was 47.2 µM (≈ 128 µg/mL); in [2], 189 µM (≈ 512 µg/mL); against Klebsiella pneumoniae, 189 µM (≈ 512 µg/mL); against Candida albicans it was > 189 µM.
Turning to `CC(C)C[C@H](NC(=O)CNC(=O)[C@H](C)NC(=O)[C@@H](NC(=O)[C@H](CCCN=C(N)N)NC(=O)[C@H](CCCN=C(N)N)NC(=O)[C@H](CC(C)C)NC(=O)[C@@H](N)CC(C)C)C(C)C)C(=O)N[C@@H](CC(C)C)C(=O)N[C@@H](CCCCN)C(=O)N[C@@H](CCC(N)=O)C(=O)N[C@@H](Cc1ccccc1)C(=O)N[C@@H](C)C(=O)N[C@@H](CCCCN)C(=O)O` [LLRRVAGLLKQFAK], the MIC stood at 2.48 µM (≈ 4 µg/mL) in assay [1], 9.92 µM (≈ 16 µg/mL) in assay [3], 4.96 µM (≈ 8 µg/mL) in assay [4] and 9.92 µM (≈ 16 µg/mL) in assay [2].
On to `CC[C@H](C)[C@H](NC(=O)[C@@H](NC(=O)[C@@H]1CCCN1C(=O)[C@@H](NC(=O)[C@@H]1CCCN1C(=O)[C@H](CCCCN)NC(=O)[C@H](CCCCN)NC(=O)[C@H](CO)NC(=O)CN)C(C)C)[C@@H](C)CC)C(=O)N[C@@H](Cc1ccc(O)cc1)C(=O)N[C@H]1CSSC[C@@H](C(=O)N[C@@H](CCC(N)=O)C(=O)N[C@@H](CCCN=C(N)N)C(=O)N[C@@H](CCSC)C(=O)O)NC(=O)[C@H](CCCCN)NC(=O)[C@H](C)NC(=O)[C@H]([C@@H](C)O)NC(=O)[C@H](CCCN=C(N)N)NC(=O)[C@H](CCCN=C(N)N)NC(=O)[C@H](CCC(N)=O)NC1=O` [GSKKPVPIIYCQRRTAKCQRM], for which the MIC in assay [1] and in [5] was 13 µM (≈ 32 µg/mL) each time.
`CC(C)C[C@H](NC(=O)[C@H](CCCCN)NC(=O)[C@H](Cc1ccccc1)NC(=O)[C@H](CC(C)C)NC(=O)[C@H](CC(C)C)NC(=O)[C@@H]1CCCN1C(=O)[C@H](CCCCN)NC(=O)[C@H](CC(C)C)NC(=O)[C@H](CCCCN)NC(=O)[C@@H]1CCCN1C(=O)[C@H](CC(C)C)NC(=O)[C@H](CC(C)C)NC(=O)[C@H](CC(C)C)NC(=O)[C@H](CCCCN)NC(=O)[C@H](CC(C)C)NC(=O)[C@H](CC(C)C)NC(=O)[C@H](CCCCN)NC(=O)[C@@H](N)Cc1ccc(O)cc1)C(N)=O` [YKLLKLLLPKLKPLLFKL]: the MIC in assay [4] was determined as 4.54 µM (≈ 9.9 µg/mL); in assay [6], 69.1 µM (≈ 151 µg/mL); in assay [7] it was 1.78 µM (≈ 3.87 µg/mL).
With `CC[C@H](C)[C@H](NC(=O)[C@H](CCCN=C(N)N)NC(=O)[C@H](CCCN=C(N)N)NC(=O)[C@@H]1CCCN1C(=O)[C@H](Cc1c[nH]c2ccccc12)NC(=O)[C@H](CCCN=C(N)N)NC(=O)[C@@H]1CCCN1C(=O)[C@H](CCCN=C(N)N)NC(=O)[C@@H]1CCCN1C(=O)[C@H](CC(C)C)NC(=O)[C@H](Cc1ccc(O)cc1)NC(=O)[C@@H]1CCCN1C(=O)[C@@H]1CCCN1C(=O)[C@H](CCCCN)NC(=O)[C@H](CC(=O)O)NC(=O)[C@@H](N)C(C)C)C(=O)N[C@@H](Cc1ccc(O)cc1)C(=O)N[C@@H](CC(N)=O)C(=O)N[C@@H](CCCN=C(N)N)C(N)=O` [VDKPPYLPRPRWPRRIYNR], the MIC in assay [2] was found to be 6.45 µM (≈ 16 µg/mL); against Escherichia coli UB1005 it was 1.01 µM (≈ 2.5 µg/mL); in assay [8] it was 12.9 µM (≈ 32 µg/mL).
For the compound `CC[C@H](C)[C@H](NC(=O)[C@H](CCCN=C(N)N)NC(=O)[C@@H](NC(=O)[C@@H]1CCCN1C(=O)[C@H](CCCN=C(N)N)NC(=O)[C@@H](NC(=O)[C@@H]1CCCN1C(=O)[C@H](CCCN=C(N)N)NC(=O)[C@H](CC(C)C)NC(=O)CNC(=O)[C@H](Cc1cnc[nH]1)NC(=O)[C@@H]1CCCN1C(=O)CNC(=O)[C@H](CC(C)C)NC(=O)[C@H](CC(N)=O)NC(=O)[C@H](Cc1c[nH]c2ccccc12)NC(=O)[C@H](C)NC(=O)[C@@H](NC(=O)[C@H](C)N)[C@@H](C)O)[C@@H](C)CC)[C@@H](C)CC)C(=O)N[C@@H](CCCN=C(N)N)C(=O)N1CCC[C@H]1C(=O)N[C@@H](CC(C)C)C(=O)N[C@@H](CS)C(=O)NCC(=O)N[C@@H](CCCCN)C(=O)N[C@@H](CC(=O)O)C(=O)N[C@@H](CCCCN)C(=O)N[C@@H](CO)C(=O)O` [ATAWNLGPHGLRPIRPIRIRPLCGKDKS], the MIC in [3] is ≥ 100 µM.
For the compound `CSCC[C@H](NC(=O)[C@@H](N)CO)C(=O)N[C@@H](CC(C)C)C(=O)N[C@@H](CO)C(=O)N[C@H](C(=O)N[C@@H](CC(C)C)C(=O)N[C@@H](CCCCN)C(=O)N[C@@H](CC(N)=O)C(=O)N[C@@H](CC(C)C)C(=O)NCC(=O)N[C@@H](CCCCN)C(=O)N[C@H](C(=O)NCC(=O)N[C@@H](CC(C)C)C(=O)NCC(=O)N[C@@H](Cc1ccccc1)C(=O)N[C@H](C(=O)N[C@@H](C)C(=O)O)C(C)C)C(C)C)C(C)C` [SMLSVLKNLGKVGLGFVA], the MIC in the assay with Escherichia coli, with Candida albicans and in the assay with Staphylococcus aureus was > 200 µM each time.
Consider `CC[C@H](C)[C@H](NC(=O)[C@H](CC(C)C)NC(=O)[C@H](CCCCN)NC(=O)[C@@H](NC(=O)[C@H](CC(C)C)NC(=O)[C@H](CCCN=C(N)N)NC(=O)[C@H](CCCN=C(N)N)NC(=O)[C@@H](NC(=O)[C@H](C)NC(=O)[C@H](CCCCN)NC(=O)[C@H](C)NC(=O)[C@H](CC(C)C)NC(=O)[C@@H](NC(=O)[C@@H](N)CCCN=C(N)N)[C@@H](C)CC)[C@@H](C)O)C(C)C)C(=O)N[C@H](C(=O)N[C@@H](CO)C(=O)NCC(=O)O)C(C)C` [RILAKATRRLVKLIVSG], for which the MIC is > 25 µM in [1]; 25 µM (≈ 47.4 µg/mL) in the assay with Acinetobacter baumannii; > 25 µM in assay [2]; > 25 µM in assay [5]; > 25 µM in [9].
Turning to `CC[C@H](C)[C@H](N)C(=O)N[C@@H](Cc1cnc[nH]1)C(=O)N[C@@H](CCCCN)C(=O)N[C@@H](CC(C)C)C(=O)N[C@H](C(=O)N[C@@H](CCCCN)C(=O)N[C@@H](CC(C)C)C(=O)N[C@@H](Cc1c[nH]c2ccccc12)C(=O)N[C@@H](CC(C)C)C(=O)N[C@@H](CC(N)=O)C(=O)N[C@@H](CC(C)C)C(=O)NCC(=O)N[C@@H](CCCCN)C(=O)N[C@@H](CCCCN)C(=O)N[C@@H](Cc1ccccc1)C(=O)O)C(C)C` [IHKLVKLWLNLGKKF], the MIC was 64 µM (≈ 118 µg/mL) in [1]; ≥ 64 µM against Acinetobacter baumannii; > 64 µM in [2]; 64 µM (≈ 118 µg/mL) in [5]; > 64 µM in [9].

Source of the values: DBAASP.
